Read-outs that look alike come from different tables or passages of the source.
Assays:
[1] = system: free MDA; experiment: Phase 1 trial, plasma biomarkers in healthy volunteers; assay type: in vivo, human; settings: vs placebo
[2] = Phase 1 trial, pharmacokinetics in healthy volunteers; assay type: in vivo, human; settings: for Cmax / AUC / half-life: human, in vivo; for AUC: read-out: 0 to 12 hour area under the curve (AUCtau)
Method: Healthy volunteers were dosed with 600 mg of compound I-1 BID for 10 days in the top (highest) dose cohort. […] The 0 to 12 hour area under the curve (AUCtau) was 5710 h*ng/mL (61.5% CV) on Day 1 and 6,800 h*ng/mL (37.9% CV) on Day 10.

[3] = First-in-human Phase 1 trial (SAD/MAD), safety; assay type: in vivo
Method: The adverse event profile was favorable compared to placebo: A total of 6 (9.4%) subjects receiving the test compound had treatment emergent adverse events, compared to 4 (19.1%) subjects who received placebo. […] No changes in serum glucose were observed. […] There were no subjects who had QTcF >500 msec or a change of >60 msec from baseline. […] Three of these five subjects were in the SAD portion of the study (one each in the 100 mg, 200 mg, and 700 mg dose cohorts) and the remaining two subjects were in the MAD portion of the study (one each in the 150 mg BID and 300 mg BID dose cohorts).
Clinical development of compound I-1 in inflammatory disease is supported by safety testing in human healthy volunteers in single and multiple ascending dose (10 day), placebo-controlled Phase I trials.

[4] = system: large panel of ligand binding assays, ion channel assays, transporter assays, and enzyme inhibition studies; experiment: Secondary pharmacology studies (ligand binding, ion channel, transporter, enzyme inhibition panel)
Method: (§1) I-1 plasma concentrations are projected to have reached at least 10 μM, exceeding reported levels of RASP in humans with inflammatory diseases. The data support the potential of I-1, and RASP inhibition in general, in treating inflammation and fibrosis.

[5] = Genotoxicity studies
Method: as §1

[6] = system: delayed rectifier potassium current; experiment: In vitro inhibition of the delayed rectifier potassium current; assay type: cell-based
[7] = system: rat NAFLD model; experiment: 12-week choline deficient high fat diet rat study (NAFLD model); assay type: in vivo; settings: for NAS score: 7 week group
Source text: NAFLD is diagnosed in the US as 3 million new cases each year. NASH is included in the NAFLD diagnosis, as it is the easiest to ascertain in a subject. NAFLD activity score (NAS) is scored as 0-2 not diagnostic, 3-4 ranges from not diagnostic/borderline/positive NASH, and 5-8 diagnostic of NASH; the NAS scoring system includes a composite of […] semi-quantitative features: steatosis (0-3), lobular inflammation (0-2), hepatocellular ballooning (0-2), and fibrosis (0-4). To analyze the effect of compound I-1 on NAFLD, NAS was analyzed in rats treated with vehicle or various doses of compound I-1 (100 mg/kg, 125 mg/kg was compared to escalation 30/60/100 mg/kg and 50/75/100 mg/kg BID, respectively in animals fed a choline deficient, high fat diet for 7 weeks (vehicle vs. 100 mg/kg vs 30/60/100 mg/kg) and 12 weeks (vehicle vs. 125 mg/kg vs 50/75/100 mg/kg). Plasma was collected at 1, 2, 3, 6, 8, 10, and 12 weeks and tested for cytokines and ALT, AST, Triglycerides, Cholesterol, and tBilirubin (measures of liver function). At 12 weeks the livers were collected and gene expression studies, immunohistochemistry, and hydroxyproline.

[8] = after high-fat meal on Day 10, 600 mg BID
[9] = plasma, 7 week and 12 week groups, vs vehicle

- accumulation of the drug ([2]; across all cohorts): Little to no accumulation
- correlation of Cmax and AUC with dose ([2]; as dose increased): linear correlation
- increase in clearance ([2]; between Day 1 and Day 10): no significant increase in clearance
- Cmax ([2]; 600 mg, 600 mg BID, Day 1): 1920 ng/mL
- AUC ([2]; 600 mg, 600 mg BID, Day 1): 5710 ng·h/mL
- half-life ([2]; 600 mg, 600 mg BID, Day 1, read-out: half-life (converted)): 3.98 h
- Cmax ([2]; 600 mg, 600 mg BID, Day 10): 1460 ng/mL
- AUC ([2]; 600 mg, 600 mg BID, Day 10): 6800 ng·h/mL
- half-life ([2]; 600 mg, 600 mg BID, Day 10, read-out: half-life (converted)): 4.56 h
- half-life ([2]; multiple day exposures, across cohorts, read-out: half-life (t1/2), mean values): 3.07 to 6.2 h
- cyp autoinduction ([2]; over the course of 10 days): no cyp autoinduction was observed
- risk of off-target effects [4]: low risk of off-target effects
- potential to inhibit the delayed rectifier potassium current [6]: very low potential
Compound: CC(C)(O)c1nc2ccccc2cc1N [I-1]
- free MDA levels in plasma ([1]; 600 mg BID over 10 days): decrease in free MDA levels was observed
- levels of HDL [1, 8]: statistically higher
- levels of free fatty acids [1, 8]: statistically lower
- overall safety and tolerability ([3]; Phase 1 SAD and MAD (10 day), up to 600 mg BID): safe and tolerable
- subjects with QTcF change of >30 msec from baseline ([3]; SAD 100, 200, 700 mg, MAD 150 mg BID, 300 mg BID cohorts): Five
- QTcF prolongation ([3]; in vivo): did not lead to QTcF prolongation
- changes in heart rate, blood pressure, respiratory rate, pulse oximetry, or temperature ([3]; in vivo): No clinically meaningful changes
- changes in hepatic or renal analytes (ALT, AST, ALP, amylase, GGT, bilirubin, creatinine kinase, creatinine) ([3]; in vivo): No clinically meaningful changes
- changes in serum glucose ([3]; in vivo): No changes
- hematological changes ([3]; in vivo): No clinically significant hematological changes
- interruptions or discontinuations of study drug administration ([3]; in vivo): no interruptions or discontinuations
- subjects with QTcF >500 msec or a change of >60 msec from baseline ([3]; in vivo): no subjects
- subjects with treatment emergent adverse events ([3]; subjects receiving the test compound, number (%)): 6 (9.4%) subjects
- potential for mutagenicity or clastogenicity [5]: no potential for mutagenicity or clastogenicity
- risk of genotoxicity ([5]; preclinical studies): low risk of genotoxicity
- liver fibrosis (picrosirius red histopathology) ([7]; 7 week and 12 week groups): trended to have reduced
- liver inflammation (hematoxylin eosin histopathology) ([7]; 7 week and 12 week groups): trended to have reduced
- NAS score ([7]; 100 mg/kg, vs vehicle): statistical significant reduction
- NAS score ([7]; 30/60/100 mg/kg escalation): reduced
- MCP expression levels ([7]; 12 week group, vs vehicle): remained similar to vehicle
- MIP expression levels ([7]; 12 week group, vs vehicle): reduction
- Rantes expression levels ([7]; 12 week group, vs vehicle): remained similar to vehicle
- cholesterol [7, 9]: trended at lower values than vehicle
- triglycerides [7, 9]: trended at lower values than vehicle

From US20230149383A1, “QUINOLINE COMPOUNDS FOR TREATING LUNG, LIVER, AND KIDNEY DISEASES, DISORDERS, OR CONDITIONS” (Aldeyra Therapeutics, Inc., priority 2020, published 2023)
